# Earlier results as cited in patent US12060347B2 (BRISTOL-MYERS SQUIBB COMPANY, priority 2016, dated 2024).
# Columns and labels:
# [1] = target: T1, protease-activated receptor type 4 (PAR4) (Homo sapiens, UniProt Q96RI0); details: abstract of Lee et al. 2001; cited from earlier work
# T1 sequence (Q96RI0 18-385): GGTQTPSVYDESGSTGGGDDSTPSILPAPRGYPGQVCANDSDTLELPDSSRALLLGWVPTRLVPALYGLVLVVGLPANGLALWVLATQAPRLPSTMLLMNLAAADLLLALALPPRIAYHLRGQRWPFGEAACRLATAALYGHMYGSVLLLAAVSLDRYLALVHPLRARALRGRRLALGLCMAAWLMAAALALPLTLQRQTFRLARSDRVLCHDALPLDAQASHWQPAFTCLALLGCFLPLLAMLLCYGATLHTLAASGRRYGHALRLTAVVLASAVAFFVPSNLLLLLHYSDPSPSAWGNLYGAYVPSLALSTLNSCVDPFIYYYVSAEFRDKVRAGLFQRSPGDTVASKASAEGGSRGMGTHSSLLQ
# [2] = target: T2, PAR1 (Homo sapiens, UniProt P25116); details: ACS patients, TRACER phase III trial; cited from earlier work
# T2 sequence (P25116 22-425): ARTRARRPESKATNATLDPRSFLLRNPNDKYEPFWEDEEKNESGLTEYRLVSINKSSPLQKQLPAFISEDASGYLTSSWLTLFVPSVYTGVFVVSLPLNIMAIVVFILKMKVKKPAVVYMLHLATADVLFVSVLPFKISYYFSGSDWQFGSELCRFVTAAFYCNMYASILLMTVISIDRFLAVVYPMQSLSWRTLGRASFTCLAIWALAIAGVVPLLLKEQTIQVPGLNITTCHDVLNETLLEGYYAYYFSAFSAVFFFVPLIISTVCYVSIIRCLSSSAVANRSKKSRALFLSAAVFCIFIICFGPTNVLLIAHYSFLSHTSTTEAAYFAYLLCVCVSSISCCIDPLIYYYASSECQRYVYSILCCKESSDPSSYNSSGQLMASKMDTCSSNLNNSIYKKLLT
Compound,inhibition of PAR4-dependent platelet activation [1],cardiovascular events [2],risk of major bleeding [2]
"CCOC(=O)c1ccc(-c2nn(Cc3ccccc3)c3ccccc23)cc1 [YD-3, ethyl 4-(1-benzyl-1H-indazol-3-yl)benzoate]",selective and potent inhibitor,,
CCOC(=O)N[C@@H]1CC[C@@H]2[C@@H](C1)C[C@H]1C(=O)O[C@H](C)[C@H]1[C@H]2/C=C/c1ccc(-c2cccc(F)c2)cn1 [vorapaxar],,did not significantly reduce,significantly increased
